# Results: US12723063B2, “GIPR-agonist compounds” (Eli Lilly and Company, priority 2019, dated 2026)
# *1 amine or outer side, *2 acyl side, *3 side chain or, on linkers, in order; H or OH if unused. Where a SMILES comes first, the peptide text is derived from it. Side-chain parts run from the residue outwards. [ ]: non-standard residue; d: D form. The star is where a group is joined. C20 diacid = O=C(O)CCCCCCCCCCCCCCCCCCC(=O)*; αMePhe(2-F) = C[C@](N)(Cc1ccccc1F)C(=O)O; γGlu = O=C(O)[C@H](CCC(=O)[*:2])N[*:1]; 4Pal = N[C@@H](Cc1ccncc1)C(=O)O; αMeL = CC(C)C[C@](C)(N)C(=O)O; AEEA = NCCOCCOCC(=O)O; Aib = CC(C)(N)C(=O)O
# Tests used:
# Test in all cases: cAMP functional assay (HTRF) in HEK293 cells in presence of 0.1% casein
# Format in all cases: cell-based
# [1] = target: T1, human GLP-1 receptor (GLP-1R) (Homo sapiens, UniProt P43220); conditions: HEK293 cells expressing human GLP-1R, geometric mean, read-out: hGLP1R cAMP Rel EC50 nM (SEM, n)
# T1 construct: expressed in transfected cells; host or cells: HEK293
# [2] = target: T2, human glucagon receptor (GcgR) (Homo sapiens, UniProt P47871); conditions: HEK293 cells expressing human GcgR, geometric mean, read-out: hGcgR cAMP Rel EC50 nM (SEM, n)
# T2 construct: expressed in transfected cells; host or cells: HEK293
# [3] = target: T3, human glucose-dependent insulinotropic peptide receptor (GIPR) (Homo sapiens, UniProt P48546); conditions: HEK293 cells expressing human GIPR, geometric mean, read-out: hGIPR cAMP Rel EC50 nM (SEM, n)
# T3 construct: expressed in transfected cells; host or cells: HEK293
# T3 sequence (P48546 22-466): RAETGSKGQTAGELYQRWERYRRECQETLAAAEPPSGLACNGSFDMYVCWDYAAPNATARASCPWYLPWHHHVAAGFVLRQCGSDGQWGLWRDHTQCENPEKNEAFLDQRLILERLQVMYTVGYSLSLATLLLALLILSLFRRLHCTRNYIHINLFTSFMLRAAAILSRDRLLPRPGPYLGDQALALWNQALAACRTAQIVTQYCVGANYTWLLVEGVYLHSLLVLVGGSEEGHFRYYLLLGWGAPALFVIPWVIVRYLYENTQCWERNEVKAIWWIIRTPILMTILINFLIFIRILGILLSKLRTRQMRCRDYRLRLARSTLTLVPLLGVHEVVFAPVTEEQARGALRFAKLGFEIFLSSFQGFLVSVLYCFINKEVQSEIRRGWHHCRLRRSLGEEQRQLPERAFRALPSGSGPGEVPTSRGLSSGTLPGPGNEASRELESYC
# T2 sequence (P47871 26-477): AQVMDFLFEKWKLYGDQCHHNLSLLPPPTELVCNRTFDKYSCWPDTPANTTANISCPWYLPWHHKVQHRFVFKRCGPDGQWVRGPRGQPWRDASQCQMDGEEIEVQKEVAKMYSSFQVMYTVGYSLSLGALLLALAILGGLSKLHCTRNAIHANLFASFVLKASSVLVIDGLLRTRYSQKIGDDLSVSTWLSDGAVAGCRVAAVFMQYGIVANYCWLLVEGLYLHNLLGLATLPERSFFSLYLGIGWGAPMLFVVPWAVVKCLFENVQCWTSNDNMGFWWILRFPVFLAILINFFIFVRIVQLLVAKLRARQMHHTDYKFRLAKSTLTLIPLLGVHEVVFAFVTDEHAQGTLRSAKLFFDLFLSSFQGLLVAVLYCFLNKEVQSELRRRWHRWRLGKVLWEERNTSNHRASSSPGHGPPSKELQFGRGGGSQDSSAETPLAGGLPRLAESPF
# T1 sequence (P43220 24-463): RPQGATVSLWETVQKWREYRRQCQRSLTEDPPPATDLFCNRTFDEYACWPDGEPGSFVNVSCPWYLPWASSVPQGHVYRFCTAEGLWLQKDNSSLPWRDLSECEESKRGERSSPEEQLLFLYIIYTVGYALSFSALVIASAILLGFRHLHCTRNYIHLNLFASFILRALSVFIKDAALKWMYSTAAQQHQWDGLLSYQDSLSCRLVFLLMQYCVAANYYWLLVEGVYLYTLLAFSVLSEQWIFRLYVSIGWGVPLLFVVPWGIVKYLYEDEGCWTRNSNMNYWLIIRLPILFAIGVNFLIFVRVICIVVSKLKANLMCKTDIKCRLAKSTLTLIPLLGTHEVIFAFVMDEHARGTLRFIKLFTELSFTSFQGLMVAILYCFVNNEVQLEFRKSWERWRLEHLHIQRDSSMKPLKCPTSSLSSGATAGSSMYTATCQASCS
SMILES,EC50 [1],EC50 [2],EC50 [3]
CC[C@H](C)[C@H](NC(=O)[C@H](Cc1ccccc1)NC(=O)[C@@H](NC(=O)CNC(=O)[C@H](CCC(=O)O)NC(=O)C(C)(C)NC(=O)[C@@H](N)Cc1ccc(O)cc1)[C@@H](C)O)C(=O)N[C@@H](CO)C(=O)N[C@@H](CC(=O)O)C(=O)N[C@@H](Cc1ccc(O)cc1)C(=O)N[C@@H](CO)C(=O)N[C@H](C(=O)N[C@@](C)(CC(C)C)C(=O)N[C@@H](CC(C)C)C(=O)N[C@@H](CC(=O)O)C(=O)N[C@@H](CCCCN)C(=O)N[C@@H](CCCCNC(=O)COCCOCCNC(=O)COCCOCCNC(=O)CC[C@H](NC(=O)CCCCCCCCCCCCCCCCC(=O)O)C(=O)O)C(=O)N[C@@H](Cc1c[nH]cn1)C(=O)N[C@@H](CCC(N)=O)C(=O)NC(C)(C)C(=O)N[C@@H](CC(=O)O)C(=O)N[C@@H](Cc1ccccc1)C(=O)N[C@H](C(=O)N[C@@H](CCC(=O)O)C(=O)N[C@@H](Cc1ccncc1)C(=O)N[C@@H](CC(C)C)C(=O)N[C@@H](CC(C)C)C(=O)N[C@@H](C)C(=O)NCC(=O)NCC(=O)N1CCC[C@H]1C(=O)N[C@@H](CO)C(=O)N[C@@H](CO)C(=O)NCC(=O)N[C@@H](C)C(=O)N1CCC[C@H]1C(=O)N1CCC[C@H]1C(=O)N1CCC[C@H]1C(=O)N[C@@H](CO)C(N)=O)C(C)C)[C@@H](C)CC [Example 49],> 5000 nM,2860 nM,0.0156 nM
CC[C@H](C)[C@H](NC(=O)[C@H](CO)NC(=O)[C@H](Cc1ccc(O)cc1)NC(=O)[C@H](CC(=O)O)NC(=O)[C@H](CO)NC(=O)[C@@H](NC(=O)[C@](C)(Cc1ccccc1F)NC(=O)[C@@H](NC(=O)CNC(=O)[C@H](CCC(=O)O)NC(=O)C(C)(C)NC(=O)[C@@H](N)Cc1ccc(O)cc1)[C@@H](C)O)[C@@H](C)CC)C(=O)N[C@@H](C)C(=O)N[C@@H](CC(C)C)C(=O)N[C@@H](CC(=O)O)C(=O)N[C@@H](CCCCN)C(=O)N[C@@H](CCCCNC(=O)COCCOCCNC(=O)COCCOCCNC(=O)CC[C@H](NC(=O)CCCCCCCCCCCCCCCCCCC(=O)O)C(=O)O)C(=O)N[C@@H](Cc1c[nH]cn1)C(=O)N[C@@H](CCC(N)=O)C(=O)NC(C)(C)C(=O)N[C@@H](CC(=O)O)C(=O)N[C@@H](Cc1ccccc1)C(=O)N[C@H](C(=O)N[C@@H](CCC(=O)O)C(=O)N[C@@H](Cc1ccncc1)C(=O)N[C@@H](CC(C)C)C(=O)N[C@@H](CC(C)C)C(=O)N[C@@H](CCC(=O)O)C(=O)NCC(=O)NCC(=O)N1CCC[C@H]1C(=O)N[C@@H](CO)C(=O)N[C@@H](CO)C(=O)NCC(=O)N[C@@H](C)C(=O)N1CCC[C@H]1C(=O)N1CCC[C@H]1C(=O)N1CCC[C@H]1C(=O)N[C@@H](CO)C(N)=O)C(C)C [Example 39] (H-Y[Aib]EGT[αMePhe(2-F)]ISDYSIALDKK([AEEA-AEEA-γGlu-C20 diacid])HQ[Aib]DFVE[4Pal]LLEGGPSSGAPPPS-NH2),3330 nM,> 5000 nM,0.0112 nM
CC[C@H](C)[C@H](NC(=O)[C@H](CO)NC(=O)[C@H](Cc1ccc(O)cc1)NC(=O)[C@H](CC(=O)O)NC(=O)[C@H](CO)NC(=O)[C@@H](NC(=O)[C@](C)(Cc1ccccc1F)NC(=O)[C@@H](NC(=O)CNC(=O)[C@H](CCC(=O)O)NC(=O)C(C)(C)NC(=O)[C@@H](N)Cc1ccc(O)cc1)[C@@H](C)O)[C@@H](C)CC)C(=O)N[C@@H](C)C(=O)N[C@@H](CC(C)C)C(=O)N[C@@H](CC(=O)O)C(=O)N[C@@H](CCCCN)C(=O)N[C@@H](CCCCNC(=O)COCCOCCNC(=O)COCCOCCNC(=O)CC[C@H](NC(=O)CCCCCCCCCCCCCCCCCCC(=O)O)C(=O)O)C(=O)N[C@@H](Cc1c[nH]cn1)C(=O)N[C@@H](CCC(N)=O)C(=O)NC(C)(C)C(=O)N[C@@H](CC(=O)O)C(=O)N[C@@H](Cc1ccccc1)C(=O)N[C@H](C(=O)N[C@@H](CCC(=O)O)C(=O)N[C@@H](Cc1ccc(O)cc1)C(=O)N[C@@H](CC(C)C)C(=O)N[C@@H](CC(C)C)C(=O)N[C@@H](CCC(=O)O)C(=O)N[C@H](C(=O)NCC(=O)N1CCC[C@H]1C(=O)N[C@@H](CO)C(=O)N[C@@H](CO)C(=O)NCC(=O)N[C@@H](C)C(=O)N1CCC[C@H]1C(=O)N1CCC[C@H]1C(=O)N1CCC[C@H]1C(=O)N[C@@H](CO)C(N)=O)[C@@H](C)O)C(C)C [Example 36] (H-Y[Aib]EGT[αMePhe(2-F)]ISDYSIALDKK([AEEA-AEEA-γGlu-C20 diacid])HQ[Aib]DFVEYLLETGPSSGAPPPS-NH2),1080 nM,> 5000 nM,0.0543 nM
CC[C@H](C)[C@H](NC(=O)[C@H](Cc1ccccc1)NC(=O)[C@@H](NC(=O)CNC(=O)[C@H](CCC(=O)O)NC(=O)C(C)(C)NC(=O)[C@@H](N)Cc1ccc(O)cc1)[C@@H](C)O)C(=O)N[C@@H](CO)C(=O)N[C@@H](CC(=O)O)C(=O)N[C@@H](Cc1ccc(O)cc1)C(=O)N[C@@H](CO)C(=O)N[C@H](C(=O)N[C@@](C)(CC(C)C)C(=O)N[C@@H](CC(C)C)C(=O)N[C@@H](CC(=O)O)C(=O)N[C@@H](CCCCN)C(=O)N[C@@H](CCCCNC(=O)COCCOCCNC(=O)COCCOCCNC(=O)CC[C@H](NC(=O)CCCCCCCCCCCCCCCCCCC(=O)O)C(=O)O)C(=O)N[C@@H](Cc1c[nH]cn1)C(=O)N[C@@H](CCC(N)=O)C(=O)NC(C)(C)C(=O)N[C@@H](CC(=O)O)C(=O)N[C@@H](Cc1ccccc1)C(=O)N[C@H](C(=O)N[C@@H](CCC(=O)O)C(=O)N[C@@H](Cc1c[nH]c2ccccc12)C(=O)N[C@@H](CC(C)C)C(=O)N[C@@H](CC(C)C)C(=O)N[C@@H](CCC(=O)O)C(=O)N[C@H](C(=O)NCC(=O)N1CCC[C@H]1C(=O)N[C@@H](CO)C(=O)N[C@@H](CO)C(=O)NCC(=O)N[C@@H](C)C(=O)N1CCC[C@H]1C(=O)N1CCC[C@H]1C(=O)N1CCC[C@H]1C(=O)N[C@@H](CO)C(N)=O)[C@@H](C)O)C(C)C)[C@@H](C)CC [Example 71] (H-Y[Aib]EGTFISDYSI[αMeL]LDKK([AEEA-AEEA-γGlu-C20 diacid])HQ[Aib]DFVEWLLETGPSSGAPPPS-NH2),> 5000 nM,581 nM,0.0721 nM
CC[C@H](C)[C@H](NC(=O)[C@H](Cc1ccccc1)NC(=O)[C@@H](NC(=O)CNC(=O)[C@H](CCC(=O)O)NC(=O)C(C)(C)NC(=O)[C@@H](N)Cc1ccc(O)cc1)[C@@H](C)O)C(=O)N[C@@H](CO)C(=O)N[C@@H](CC(=O)O)C(=O)N[C@@H](Cc1ccc(O)cc1)C(=O)N[C@@H](CO)C(=O)N[C@H](C(=O)N[C@@](C)(CC(C)C)C(=O)N[C@@H](CC(C)C)C(=O)N[C@@H](CC(=O)O)C(=O)N[C@@H](CCCCN)C(=O)N[C@@H](CCCCNC(=O)COCCOCCNC(=O)COCCOCCNC(=O)CC[C@H](NC(=O)CCCCCCCCCCCCCCCCCCC(=O)O)C(=O)O)C(=O)N[C@@H](Cc1c[nH]cn1)C(=O)N[C@@H](CCC(N)=O)C(=O)NC(C)(C)C(=O)N[C@@H](CCC(=O)O)C(=O)N[C@@H](Cc1ccccc1)C(=O)N[C@H](C(=O)N[C@@H](CCC(=O)O)C(=O)N[C@@H](Cc1ccncc1)C(=O)N[C@@H](CC(C)C)C(=O)N[C@@H](CC(C)C)C(=O)N[C@@H](C)C(=O)NCC(=O)NCC(=O)N1CCC[C@H]1C(=O)N[C@@H](CO)C(=O)N[C@@H](CO)C(=O)NCC(=O)N[C@@H](C)C(=O)N1CCC[C@H]1C(=O)N1CCC[C@H]1C(=O)N1CCC[C@H]1C(=O)N[C@@H](CO)C(N)=O)C(C)C)[C@@H](C)CC [Example 52],> 5000 nM,337 nM,0.0194 nM
